# Values joined by “and” are separate entries in the source; they are usually repeats but may differ in a detail not shown here. Identical values can stand only once. Like-named read-outs stand apart in the source and are kept apart here. Ends that are not written are not given here.
# Columns and labels:
# X. maltophila = test: organism not typed; settings: agent alone
# Method: (§1) FICs are performed by checkerboard titrations of peptides in one dimension of a microtiter plate, and of antibiotics in the other dimension, for example. The FIC is calculated by looking at the impact of one antibiotic on the MIC of the other and vice versa. […] Preferably, an FIC of less than 0.5 is obtained for synergism. As used herein, FIC can be determined as follows: [formula]
# (§2) Synergism is identified as an FIC of about ≦0.5.
# A. calcoaceticus = settings: agent alone
# Method: as §1, §2
# P. aeruginosa [1] = test: microbe, parasite or virus in culture; settings: agent alone
# Method: as §1, §2
# E. cloacae = settings: agent alone
# Method: as §1, §2
# E. faecalis = test: MIC, broth dilution in LB-S; assay type: cell-based; settings: MBI 29 and MBI21 derivatives
# Method: (§3) The biological activity of the peptides can be determined by standard methods known to those of skill in the art, such as “minimal inhibitory concentration (MIC)” assay described in the present examples, whereby the lowest concentration at which no change in OD is observed for a given period of time is recorded as MIC. Alternatively, “fractional inhibitory concentration (FIC)” is also useful for determination of synergy between the peptides of the invention, or the peptides in combination with known antibiotics. FICs are performed by checkerboard titrations of peptides in one dimension of a microtiter plate, and of antibiotics in the other dimension, for example. The FIC is calculated by looking at the impact of one antibiotic on the MIC of the other and vice versa. […] Preferably, an FIC of less than 0.5 is obtained for synergism. As used herein, FIC can be determined as follows: [formula]
# (§4) Briefly, cells were grown overnight at 37° C. in LB-S (Luria broth without any salt supplement) and diluted one in 10,000 in the same medium to give concentrations of about 10^4 to 10^5 CFU/ml. The broth dilutions were set up in a 96 well microtiter plate by putting 200 μl of LB-S containing the initial concentration of antibiotic or compound in column 1 and 100 μl of the same medium in columns 2-12. The compounds were diluted by taking 100 μl of broth from column 1 and mixing it with column 2, resulting in a one in two dilution. This was continued to column 10. Finally, 10 μl of bacteria were pipetted into columns 1-11, and the plates incubated overnight at 37° C. The next day the plates were scored for growth in the wells, and the MIC determined.
# E. coli = test: MIC, broth dilution in LB-S; assay type: cell-based; settings: for MIC E. coli 0111:B4: MBI 29 and MBI21 derivatives; for MIC: E. coli (UB1005), Table 1a
# Method: as §3, §4
# S. aureus = test: MIC, broth dilution in LB-S; assay type: cell-based; settings: for MIC K147 / MIC SAP: MBI 29 and MBI21 derivatives; for MIC: Table 1a
# Method: as §3, §4
# B. Subtilis = test: MIC, broth dilution in LB-S; assay type: cell-based; settings: MBI 29 and MBI21 derivatives
# Method: as §3, §4
# C610 = test: MIC, broth dilution in LB-S; assay type: cell-based, S. typhimurium; settings: MBI 29 and MBI21 derivatives
# Method: as §3, §4
# P. aeruginosa [2] = settings: for MIC H103: MBI 29 and MBI21 derivatives; for MIC: P. aeruginosa (H187), Table 1a
# Method: as §1, §4
# S. epidermis = settings: for MIC S. epi 0017: MBI 29 and MBI21 derivatives; for MIC: S. epidermis, Table 1a
# Method: as §1, §4
# Candida albicans = test: MIC, broth dilution in LB-S; assay type: cell-based; settings: Candida alibicans (CAN105); Table 1a
# Method: as §1, §4
# [3] = X. maltophila isolate 35, strain 6
# [4] = X. maltophila isolate 36, strain 16
# [5] = X. maltophila isolate 38, strain 7901
# [6] = X. maltophila isolate 39, strain B3110.1
# [7] = X. maltophila isolate 40, strain R1302-1
# [8] = X. maltophila isolate 41, strain R4230
# [9] = X. maltophila isolate 43, strain TF29-2
# [10] = X. maltophila isolate 45, strain W11291
# [11] = A. calcoaceticus isolate 1, strain ATCC 23055
# [12] = P. aeruginosa isolate 24, strain 34
# [13] = P. aeruginosa isolate 27, strain 14644
# [14] = P. aeruginosa isolate 28, strain 15036
# [15] = P. aeruginosa isolate 30, strain B3999-1
# [16] = X. maltophila isolate 44, strain W6896-2
# [17] = X. maltophila isolate 37, strain 3095
# [18] = X. maltophila isolate 42, strain TF29-1
# [19] = E. cloacae isolate 14, strain 938-2
# [20] = E. cloacae isolate 18, strain 3077
# [21] = P. aeruginosa isolate 23, strain ATCC 27853
# [22] = P. aeruginosa isolate 25, strain 923-1
# [23] = P. aeruginosa isolate 26, strain 3101
# [24] = P. aeruginosa isolate 32, strain W2897-1
# [25] = P. aeruginosa isolate 31, strain U7688-1
compound,measurement,setting,value
CC(C)(O/N=C(\C(=O)N[C@@H]1C(=O)N2C(C(=O)[O-])=C(C[n+]3ccccc3)CS[C@H]12)c1csc(N)n1)C(=O)O [Ceftazidime],MIC,X. maltophila; [3],32 µg/mL
same,MIC,X. maltophila; [4],16 µg/mL
same,MIC,X. maltophila; [5],256 µg/mL
same,MIC,X. maltophila; [6],128 µg/mL
same,MIC,X. maltophila; [7],32 µg/mL
same,MIC,X. maltophila; [8],8 µg/mL
same,MIC,X. maltophila; [9],2 µg/mL
same,MIC,X. maltophila; [10],128 µg/mL and 256 µg/mL
same,MIC,A. calcoaceticus; [11],4 µg/mL
same,MIC,"A. calcoaceticus; A. calcoaceticus isolate 5, strain 8220",8 µg/mL
same,MIC,P. aeruginosa [1]; [12],64 µg/mL
same,MIC,P. aeruginosa [1]; [13],256 µg/mL
same,MIC,P. aeruginosa [1]; [14],4 µg/mL
same,MIC,P. aeruginosa [1]; [15],8 µg/mL
O=C(O)c1cn(C2CC2)c2cc(N3CCNCC3)c(F)cc2c1=O [Ciprofloxacin],MIC,X. maltophila; [16],8 µg/mL
same,MIC,P. aeruginosa [1]; [14],32 µg/mL
C[C@@H](O)[C@H]1C(=O)N2C(C(=O)O)=C(SCCN=CN)C[C@H]12 [Imipenem],MIC,"X. maltophila; X. maltophila isolate 34, strain ATCC 13637",512 µg/mL
same,MIC,X. maltophila; [3],512 µg/mL
same,MIC,X. maltophila; [4],512 µg/mL
same,MIC,X. maltophila; [17],512 µg/mL
same,MIC,X. maltophila; [5],512 µg/mL
same,MIC,X. maltophila; [6],512 µg/mL
same,MIC,X. maltophila; [7],512 µg/mL
same,MIC,X. maltophila; [8],512 µg/mL
same,MIC,X. maltophila; [18],512 µg/mL
same,MIC,X. maltophila; [9],512 µg/mL
same,MIC,X. maltophila; [16],512 µg/mL
same,MIC,X. maltophila; [10],512 µg/mL
same,MIC,"A. calcoaceticus; A. calcoaceticus isolate 3, strain 27",512 µg/mL
same,MIC,"A. calcoaceticus; A. calcoaceticus isolate 4, strain 28",8 µg/mL
same,MIC,"A. calcoaceticus; A. calcoaceticus isolate 7, strain 8222",2 µg/mL
same,MIC,"A. calcoaceticus; A. calcoaceticus isolate 11, strain 8226",2 µg/mL
same,MIC,"E. cloacae; E. cloacae isolate 12, strain ATCC 13047",2 µg/mL
same,MIC,E. cloacae; [19],2 µg/mL
same,MIC,E. cloacae; [20],2 µg/mL
same,MIC,"E. cloacae; E. cloacae isolate 19, strain 3356",2 µg/mL
same,MIC,"E. cloacae; E. cloacae isolate 20, strain 14269",2 µg/mL
same,MIC,P. aeruginosa [1]; [21],4 µg/mL
same,MIC,P. aeruginosa [1]; [22],2 µg/mL
same,MIC,P. aeruginosa [1]; [23],4 µg/mL
same,MIC,P. aeruginosa [1]; [13],8 µg/mL
same,MIC,P. aeruginosa [1]; [14],8 µg/mL
same,MIC,"P. aeruginosa [1]; P. aeruginosa isolate 29, strain 15545",128 µg/mL
same,MIC,P. aeruginosa [1]; [15],128 µg/mL
same,MIC,P. aeruginosa [1]; [24],128 µg/mL
CCN1CCN(C(=O)N[C@@H](C(=O)N[C@@H]2C(=O)N3[C@@H]2SC(C)(C)[C@@H]3C(=O)O)c2ccccc2)C(=O)C1=O [Piperacillin],MIC,X. maltophila; [17],1024 µg/mL
same,MIC,X. maltophila; [5],1024 µg/mL
same,MIC,X. maltophila; [6],1024 µg/mL
same,MIC,X. maltophila; [7],1024 µg/mL
same,MIC,X. maltophila; [10],1024 µg/mL
same,MIC,"A. calcoaceticus; A. calcoaceticus isolate 9, strain 8224",128 µg/mL
same,MIC,E. cloacae; [19],4 µg/mL
same,MIC,E. cloacae; [20],4 µg/mL
same,MIC,"E. cloacae; E. cloacae isolate 21, strain 14661",8 µg/mL
same,MIC,P. aeruginosa [1]; [21],128 µg/mL
same,MIC,P. aeruginosa [1]; [22],32 µg/mL
same,MIC,P. aeruginosa [1]; [23],128 µg/mL
same,MIC,P. aeruginosa [1]; [13],1024 µg/mL
same,MIC,P. aeruginosa [1]; [15],256 µg/mL
same,MIC,P. aeruginosa [1]; [25],256 µg/mL
same,MIC,P. aeruginosa [1]; [24],32 µg/mL
same,MIC,"P. aeruginosa [1]; Pseudomonas aeruginosa, P. aeruginosa isolate 23, strain ATCC 27853",256 µg/mL
NC[C@H]1O[C@H](O[C@H]2[C@H](O)[C@@H](O[C@H]3O[C@H](CO)[C@@H](O)[C@H](N)[C@H]3O)[C@H](N)C[C@@H]2N)[C@H](N)C[C@@H]1O [Tobramycin],MIC,X. maltophila; [4],128 µg/mL
same,MIC,X. maltophila; [6],16 µg/mL
same,MIC,X. maltophila; [18],1 µg/mL
same,MIC,X. maltophila; [9],1 µg/mL
same,MIC,X. maltophila; [16],8 µg/mL
same,MIC,A. calcoaceticus; [11],2 µg/mL
same,MIC,E. cloacae; [19],1 µg/mL
same,MIC,"E. cloacae; E. cloacae isolate 15, strain B5546",1 µg/mL
same,MIC,P. aeruginosa [1]; [12],128 µg/mL
same,MIC,P. aeruginosa [1]; [13],1 µg/mL
same,MIC,P. aeruginosa [1]; [15],1 µg/mL
same,MIC,P. aeruginosa [1]; [25],2 µg/mL
same,MIC,"P. aeruginosa [1]; P. aeruginosa isolate 33, strain W5483-2",2 µg/mL
KKSFFKKLTSVASSVLS [MBI21A14],MIC E. faecalis,E. faecalis,>128 µg/mL
same,MIC E. coli 0111:B4,E. coli,>128 µg/mL
same,MIC K147,S. aureus,>128 µg/mL
same,MIC SAP,S. aureus,>128 µg/mL
same,MIC B. Subtilis,B. Subtilis,>128 µg/mL
same,MIC C610,C610,128 µg/mL
same,MIC H103,P. aeruginosa [2],>128 µg/mL
same,MIC S. epi 0017,S. epidermis,>128 µg/mL
KKWWRRVLSGLKTAGPAIQSVLNK [MBI21A1],MIC E. faecalis,E. faecalis,>128 µg/mL
same,MIC E. coli 0111:B4,E. coli,16 µg/mL
same,MIC K147,S. aureus,>128 µg/mL
same,MIC SAP,S. aureus,>128 µg/mL
same,MIC B. Subtilis,B. Subtilis,>128 µg/mL
same,MIC C610,C610,16 µg/mL
same,MIC H103,P. aeruginosa [2],64 µg/mL
same,MIC S. epi 0017,S. epidermis,128 µg/mL
"KWKLFKKIGIGAVLKVLTTGLPALIS [CEME, reference compound]",MIC,E. coli,5 µg/mL
same,MIC,S. aureus; S. aureus (K 147),32 µg/mL
same,MIC,S. aureus; S. aureus (SAP0017),24 µg/mL
same,MIC,Candida albicans,64 µg/mL
same,MIC,P. aeruginosa [2],8 µg/mL
same,MIC,S. epidermis,16 µg/mL
KWKLFKKKGTGAVLTVLTTGLPALIS [MBI29A3],MIC E. faecalis,E. faecalis,>128 µg/mL
same,MIC E. coli 0111:B4,E. coli,8 µg/mL
same,MIC K147,S. aureus,32 µg/mL
same,MIC SAP,S. aureus,32 µg/mL
same,MIC B. Subtilis,B. Subtilis,16 µg/mL
same,MIC C610,C610,8 µg/mL
same,MIC H103,P. aeruginosa [2],16 µg/mL
same,MIC S. epi 0017,S. epidermis,16 µg/mL
KWKSFIKKLTSVLKKVVTTALPALIS [MBI29A1],MIC E. faecalis,E. faecalis,64 µg/mL
same,MIC E. coli 0111:B4,E. coli,4 µg/mL
same,MIC K147,S. aureus,16 µg/mL
same,MIC SAP,S. aureus,16 µg/mL
same,MIC B. Subtilis,B. Subtilis,16 µg/mL
same,MIC C610,C610,8 µg/mL
same,MIC H103,P. aeruginosa [2],16 µg/mL
same,MIC S. epi 0017,S. epidermis,16 µg/mL
MA-20: 20 carboxy terminal amino acids of melittin (MA) [reference compound],MIC,E. coli,≧64
same,MIC,S. aureus; S. aureus (K 147),≧64
same,MIC,S. aureus; S. aureus (SAP0017),≧64
same,MIC,Candida albicans,≧64
same,MIC,P. aeruginosa [2],≧64
same,MIC,S. epidermis,≧64
